According to patent US8614064B2, “Methods of diagnosing atherosclerosis by measuring ApoCI” (The Johns Hopkins University, priority 2003, dated 2013):

Columns and labels:
[1] = system: human aortic smooth muscles cells (ASMC); test: Fluorescence microscope quantitative assay of apoptotic death (DAPI staining); assay type: cell-based; conditions: C2-ceramide 10 μmol/L + ApoCI 2.5 μg/mL + GW4869 20 μmol/L, 24 h; control 2.2%
Protocol: (§1) FIGS. 1A-1C depict the effect of apolipoproteins on apoptosis in human aortic smooth muscles cells (ASMC). ASMC were grown on sterilized glass cover slips and incubated for 24 hours with media alone (control), ApoCIII (negative control, 2.5 μg/mL medium), ApoCI (2.5 μg/mL medium), ApoCI-enriched HDL (1 μg apoA-I/mL medium), or ApoCI-poor HDL (5 μg apoA-I/mL medium) for 24 hours. Cells were then fixed with ethanol-acetic acid (3:1 volume/volume) and washed 3 times with phosphate-buffered saline. The cells were then stained with DAPI reagent, mounted on a glass cover slide, and subjected to fluorescence microscopy. FIG. 1A: The nucleus of normal cells stains blue and the nucleus of apoptotic cells stains is fragmented white. FIG. 1B: 300 to 500 cells in each sample were counted and the percent of apoptotic cells was plotted. Values are mean±SD; **P<0.01, ***P<0.001. FIG. 1C: DNA ladder assay. Confluent cultures of ASMC were incubated with control medium alone, ApoCI (2.5 μg/mL medium), ApoCIII (negative control, 2.5 μg/mL medium), and TNF-α (positive control, 20 ng/mL medium). Genomic DNA was extracted and 10 μg DNA was subjected to agarose gel electrophoresis. The gels were calibrated with commercially available DNA standards. After electrophoresis, the gels were stained with ethidium bromide and then photographed.
FIGS. 2A-2B depict the effect of ApoCI, the N-SMase inhibitor, GW4869, and C-2 ceramide on apoptosis in cultured human ASMC. FIG. 2A: ASMC (1×10^3) were seeded on sterilized glass cover slips and grown in tissue culture medium with 10% fetal calf serum for 48 hours. […] Thirty minutes later, vehicle DMSO, ApoCI (2.5 μg/mL), or C2-ceramide (10 μmol/L) were added to dishes, and the incubation continued for 24 hours. The cells were then fixed with ethanol-acetic acid (3:1 v/v), stained with DAPI reagent, assessed by fluorescent microscopy, and photographed. Top to bottom: control cells; cells incubated with ApoCI± the N-SMase inhibitor, GW4869; and cells incubated with ApoCI GW4869, and C2-ceramide. FIG. 2B: The DAPI-stained ASMC from the four experimental conditions described was analyzed for quantitative apoptosis. Mean (SD) from 4 experiments. *P<0.05.
Human AoSMC that were negative for mycoplasma, hepatitis B and C and HIV-1 were purchased from Clonetics (San Diego, Calif.) and cultured in Dulbecco's minimal essential medium (Invitrogen, Carlsbad, Calif.) with 10% fetal bovine serum (Hyclone, Salt Lake City, Utah), 100-units/ml penicillin, 100-μg/ml streptomycin to confluence. The cells were incubated in serum-free medium for 30 min prior to initiating the experiments. Cells were then washed and harvested in PBS, and centrifuged at 1500 rpm for 5 min at 4° C. Protease inhibitors were then added and the pellets stored frozen at −30° C. until use.
1×10^3 cells were grown on sterilized glass cover slips in 6-well trays and treated with ApoCI (2.5 μg/ml medium), ApoCIII (2.5 μg/ml medium), tumor necrosis factor (TNF)-α (30 ng/ml), ApoCI-enriched HDL (1 μg apoA-I/ml medium) and ApoCI-poor HDL (5 μg apoA-I/ml medium). After 24 h incubation, the medium was removed, cells fixed with ethanol:acetic acid […] and stored at 4° C. Next, the fixing solution was removed and cells stored frozen at −30° C. Cover slips were mounted on the microscope slides and stained with DAPI reagent (4,6-diamino-2-phenylindol, dihydrochloride). The stained nuclei were visualized by fluorescence microscopy (Zeiss Axiovert 25). Apoptotic cells were determined after counting—500 cells in a double blind fashion.

[2] = system: human aortic smooth muscles cells (ASMC); test: DNA laddering assay; assay type: cell-based; conditions: ApoCI or ApoCIII 2.5 μg/mL, TNF-α positive control
Protocol: as §1
Cells were treated with either TNF-α (30 ng/ml), ApoCI or ApoCIII (2.5 μg/ml) for 6 h. The cells were then washed twice with minimal essential medium and harvested with buffer (10 mM HEPES, pH 7.4. 5 mM EDTA, 0.25 mM EGTA, 50 mM NaF, 5 mM β-mercaptoethanol, 0.35 M sucrose, 0.1% Nonidet and protease inhibitors, 1 mM phenylmethylsulfonyl fluoride, 2 μg/ml leupeptin and 5 μg/ml pepstatin), and pelleted. Genomic DNA was prepared employing standard protocol. Genomic DNA was subjected to electrophoresis, stained with ethidium bromide and the gel was photographed. The gel was calibrated using DNA fragments of known molecular weight.

N-SMase = test: Neutral sphingomyelinase assay in treated ASMC ([14C]sphingomyelin substrate); assay type: cell-based, human; conditions: 5 min; ApoCI 2.5 μg/mL, TNF-α 20 ng/mL, ApoCI-enriched HDL 1 μg apoA-I/mL; control 22 nmol/h per mg protein = 100%
Protocol: FIGS. 3A-3C depict the effects of ApoCI, ApoCIII, TNF-α, ApoCI-enriched HDL, and ApoCI-poor HDL on the activity of N-SMase in ASMC. Confluent cultures of ASMC were preincubated for 30 minutes with serum-free (control) medium, then ApoCI (2.5 μg/mL medium), ApoCIII (2.5 μg/mL medium), TNF-α (20 ng/mL medium) (FIG. 3A, top), or ApoCI-enriched HDL (1 μg apoAI/mL medium), or ApoCI-poor HDL (5 μg apoA-I/mL medium) (FIG. 3B, middle) were added individually to cells. The cells were then incubated and harvested at the indicated time points, and the activity was of N-SMase determined using [^14C]sphingomyelin as substrate. The N-SMase activity in control cells was 22 nmol/h per milligram cell protein, and this value was considered as 100% activity. In a separate experiment (FIG. 3C bottom), cells (0.5×10^5) were seeded in P60 Petri dishes and grown in DMEM supplemented with 10% fetal bovine serum for 5 days. After preincubation of cells for 30 minutes in serum-free medium, increasing amounts of ApoCI were added. After incubation for 10 minutes, cells were harvested, and N-SMase activity was measured.
After stimulation with ApoCI ApoCI-enriched HDL and ApoCI-poor HDL, the cells were washed with 5 ml of PBS and harvested. The pellets were stored frozen at −70° C. and resuspended in 0.5 ml of buffer (100 mM Tris-HCl pH 7.4, 0.1% Triton X-100, 1 mM EDTA and protease inhibitors). The cell suspension was sonicated 3 times (3-s bursts) using a probe sonicator and centrifuged at 500×g at 4° C. for 5 min. The supernatant was used as the enzyme source. 100 μg of protein was assayed for neutral sphingomyelinase activity in a buffer consisting of 50 mM Tris-HCl, pH 7.4, 0.1% Triton X-100, 0.1 mg of bovine serum albumin, 5 mM MgCl2 and […] of [^14C]sphingomyelin (specific activity 50 mCi/mmol, from American Radiolabled Chemicals (St. Louis, Mo.). The samples were incubated at 37° C. for 2 h and terminated with the addition of 1 ml of 10% trichloroacetic acid. The precipitate was pelleted (1000×g at 4° C. for 30 min) and 1 ml of the supernatant was extracted with 1 ml of anhydrous diethyl ether. About 0.5 ml of the aqueous phase was removed for liquid scintillation counting (Ghosh, N., and Chatterjee, S. (1998) J. Biol. Chem. 264, 12554-12561).

Compound | percent apoptotic cells with C2-ceramide added to ApoCI and GW4869 [1] [%] | DNA laddering on agarose gel (FIG. 1C) [2] | increase in the activity of N-SMase at 5 minutes (N-SMase) [fold]
CCCCCCCCCCCCC/C=C/[C@@H](O)[C@H](CO)NC(C)=O [C2-ceramide] | ~12.5 | – | –
tumor necrosis factor α [TNF-α] | – | exhibited DNA laddering | ~2
